From paper PMC5675120 (Nature chemical biology, 2017)
Where no end group is shown, it is not given here. The star is where a group is joined. FITC = O=C1OC2(c3ccc(O)cc3Oc3cc(O)ccc32)c2ccc(NC(=S)*)cc21

B1: vMIA peptide (aa 131-150), as used in competition STD NMR (peptide)
peptide: EALKKALRRHRFLWQRRQRA
B2: FITC-vMIA peptide (aa 131-150) (peptide)
peptide: {FITC}-EALKKALRRHRFLWQRRQRA

Key:
[1] = molecular target: BAX (Homo sapiens, UniProt Q07812); test: STD NMR; format: binding
[2] = molecular target: T1, BCL-2-associated X protein (BAX), recombinant, full-length, monomeric (human, UniProt Q07812 1-192); test: competition STD NMR
[3] = molecular target: T1, BCL-2-associated X protein (BAX), …; test: fluorescence polarisation

Chain of BAX (Q07812 whole entry): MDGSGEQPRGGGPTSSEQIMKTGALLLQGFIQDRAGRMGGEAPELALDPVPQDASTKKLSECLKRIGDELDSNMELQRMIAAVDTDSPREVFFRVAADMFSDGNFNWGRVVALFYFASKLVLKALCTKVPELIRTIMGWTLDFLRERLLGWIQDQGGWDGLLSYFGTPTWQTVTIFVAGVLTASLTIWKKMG
T1 sequence (Q07812 whole entry): as above

Molecule | STD NMR; liposomal release sensitization [1] | other results
Oc1cccc(Oc2ccccc2)c1 [compound 2, 3-phenoxyphenol] | all retain BAX-binding activity as assessed by STD NMR, and demonstrate BAX-sensitization activity | –
Oc1ccc(Cc2ccccc2)cc1 [compound 3, 4-benzylphenol] | all retain BAX-binding activity as assessed by STD NMR, and demonstrate BAX-sensitization activity | –
Nc1ccc(Oc2ccccc2)cc1 [compound 4, 4-phenoxyaniline] | all retain BAX-binding activity as assessed by STD NMR, and demonstrate BAX-sensitization activity | –
B1 | – | binding result [2]: binds
B2 | – | binding result [3]: binds
